{"source": "patent EP0312245A2", "about": "“Polycyclic compounds and pharmaceutical compositions thereof” (NORISTAN HOLDINGS LIMITED, priority 1987, dated 1989)", "key": {"[1]": {"system": "cardiac myocytes", "assay": "Calcium current blockade in cardiac myocytes (voltage clamp)", "assay_type": "cell-based, guinea-pig", "settings": "voltage clamp experiments of cardiac myocytes", "procedure": "Ventricular myocytes were isolated from guinea-pig hearts by enzymatic dispersion of the cells using a method related to that employed by Mitra and Morad. After 5 minutes of perfusion at 37 °C on a Langendorff apparatus, the Tyrode solution was changed for a Ca-free solution for 5 minutes, after which the heart was perfused with a 40ml Ca-free solution containing 12mg collagenase (Type II, Sigma) and 10mg protease (Type XIV; Sigma). Perfusion with the soluticn containing enzymes was usually stopped within 5 minutes or as soon as dark areas appeared on the ventricles. The heart was then perfused with a Tyrode solution containing 0.8mM Ca for a few minutes, after which the ventricles were cut in small pieces and the isolated cells were shaken free in a 50ml beaker containing Tyrode solution.\nTyrode solution containing 5.4 mM KCI; 1.8 mM CaC12; 0.5 mM MgClz; 137.6 mM NaCI; 5 mM glucose and 11.6 mM HEPES. The pH was adjusted to 7.4 with NaOH. […] No change in the pH of the Tyrode solution could be measured after this addition. […]\nSuction pipettes with resistance values between 2 and 5 MΩ were drawn from borosilicate glass (Jencons, H15/10) and heat polished. […] The results were recorded on magnetic tape or floppy disk. […] Calcium currents were measured as the difference between the maximum slow inward current and the current recorded after 400 ms."}, "[2]": {"system": "guinea-pig papillary muscle", "assay": "Electrophysiological test: action potential of guinea-pig papillary muscle (microelectrode technique)", "settings": "for minimal effective concentration: Cavia porcellus; for TIME 1 (Shortest time needed to attain suppression) / TIME 2 (Shortest time needed for reversal of effect by washing out of compound): at the listed bath concentration; for DEGREE OF SUPPRESSION: suppression of action potential at the listed bath concentration", "procedure": "Electrophysiological studies were conducted on guinea-pig papillary muscle.\nUsing a microelectrode technique, action potentials were measured from guinea-pig papillary muscles. Action potentials were evoked by electrical stimulation (platinum electrode, Grass S88 stimulator, 1 Hz stimulation frequency; voltage, 10% above threshold). […] The preparations were electrically driven (pacing intervals 1 s, duration 2-5 ms). Slow (Ca2+ mediated) action potentials were evoked in a depolarizing solution (22 mmol/l K and 5 mmol/I Ca^2+) at 0,35 Hz stimulation frequency in order to ensure complete removal of inactivation of slow inward current."}, "[3]": {"system": "isolated rabbit ear preparation", "assay": "Rabbit ear perfusion test (adrenaline-induced tone, perfusion pressure)", "procedure": "Female New Zealand White rabbits (approximately 4kg) were anaesthetised with Sagatal ® (0.5ml/kg).\nThe central ear artery was cannulated using a 20 G catheter and the ear cut off at its base. Heparinised (5ml, 200 IU;ml) Krebs bicarbonate solution was perfused through the ear to expel the blood. The ear was placed in a warming jacket at 37°C and attached via the arterial catheter to the perfusion pump. Perfusion of the ear with aerated (95% 025% C02)Krebs bicarbonate solution at 37° C was commenced at a rate of 6.5ml/min using a Watson Marlow peristaltic pump. The perfusion pressure was monitored continuously using a pressure transducer (Type 4-327-1221, Consoliated Electrodynamics) coupled to a Devices Recorder.\nFollowing an equilibration period of 15 minutes, increased tone was induced in the preparation by addition of adrenaline (1µg/ml) to the perfusion fluid.\nAfter a stable tone was observed, various concentrations of test compounds were injected into the perfusion fluid and examined for their effect on the perfusion pressure. The effect of vehicle (0.2ml, 50% Krebs 50% ethanol) was also tested on the ear preparation."}, "[4]": {"system": "spontaneously hypertensive rats (SHR )", "assay": "Antihypertensive test: mean arterial pressure in spontaneously hypertensive rats", "assay_type": "in vivo, rat", "settings": "statement in words", "procedure": "The effect of Compound 3 on the mean arterial pressure was determined on spontaneously hypertensive rats (SHR ) by means of direct pressure transducing. Groups of 6 male rats of mass 210-300g were used. The average of ten pressure determinations was used. Normotensive (BD-9) rats were used as animal controls, while normal saline solution (containing some traces of polyethylene glycol and ethanol to aid in the solution of the test compounds) was used as solvent and as solvent control.\nAfter verifying the mass of the animal, it was placed under general anaesthesia by administering 60mgikg pentobarbitone (Sagatal@) intraperitonially. The tracheal tube and carotid artery were both exposed by dissection. An intranule was introduced into the trachea as aid ventilation. The carolid artery was canalated and coupled to a pressure sensor. The sysolic, diastolic and mean arterial pressure were monitored via a Spacelab 514 patient monitor and registered on a Vitatek 551 plotter. During the experiment the exposed tissue of the rat was covered with guaze and kept damp with normal saline.\nThe drugs and solvent controls were administered intravenously into the dorsal penile vein after stabilization of the blood pressure (BP) had occurred. After drug administration, the BP was recorded every 5 minutes for a period of 30 min."}}, "note": "Where two headings read alike, the source gives them in different places."}
{"smiles": "CCCCCCCCNC12OC3C4C5CC(C6C5C3C61)C42", "note": "(racemic) [Compound 3, 8-η-Octylamino-8,11-oxopentacyclo[5.4.0 .0^2,6.0^3,10.0^5,9]undecane]", "values": [{"measurement": "block of the calcium current", "setting": "[1]", "value": "pronounced frequency dependent block"}, {"measurement": "minimal effective concentration", "setting": "[2]; read-out: BATH CONCENTRATION (Lowest concentration of the compound to induce suppression of action potential), Table 3, guinea-pig papillary muscle", "value": 62.5, "unit": "µM"}, {"measurement": "minimal effective concentration", "setting": "[2]; read-out: BATH CONCENTRATION (Lowest concentration of the compound to induce suppression of action potential), Table 4, racemates and optical isomers", "value": 62.5, "unit": "µM"}, {"measurement": "TIME 1 (Shortest time needed to attain suppression)", "setting": "[2]; Table 3", "value": 6, "unit": "min"}, {"measurement": "TIME 2 (Shortest time needed for reversal of effect by washing out of compound)", "setting": "[2]; Table 3", "value": 6, "unit": "min"}, {"measurement": "DEGREE OF SUPPRESSION", "setting": "[2]; Table 3", "value": "complete"}, {"measurement": "TIME 1 (Shortest time needed to attain suppression)", "setting": "[2]; Table 4", "value": 6, "unit": "min"}, {"measurement": "TIME 2 (Shortest time needed for reversal of effect by washing out of compound)", "setting": "[2]; Table 4", "value": 6, "unit": "min"}, {"measurement": "DEGREE OF SUPPRESSION", "setting": "[2]; Table 4", "value": "complete"}, {"measurement": "inhibition at 0.01 mg", "setting": "[3]; Oryctolagus cuniculus, Table 5, dose 10 µg, read-out: Mean % change in perfusion pressure", "value": 8.5, "unit": "%"}, {"measurement": "inhibition at 0.0316 mg", "setting": "[3]; Oryctolagus cuniculus, Table 5, dose 31.6 µg, read-out: Mean % change in perfusion pressure", "value": 11.5, "unit": "%"}, {"measurement": "inhibition at 0.1 mg", "setting": "[3]; Oryctolagus cuniculus, Table 5, dose 100 µg, read-out: Mean % change in perfusion pressure", "value": 16.5, "unit": "%"}, {"measurement": "inhibition at 0.316 mg", "setting": "[3]; Oryctolagus cuniculus, Table 5, dose 316 µg, read-out: Mean % change in perfusion pressure", "value": 26, "unit": "%"}, {"measurement": "inhibition at 1 mg", "setting": "[3]; Oryctolagus cuniculus, Table 5, dose 1000 µg, read-out: Mean % change in perfusion pressure", "value": 41, "unit": "%"}, {"measurement": "inhibition at 0.01 mg", "setting": "[3]; Oryctolagus cuniculus, Table 6, dose 10 μg, read-out: Corrected mean % change in perfusion pressurre", "value": 5.5, "unit": "%"}, {"measurement": "inhibition at 0.0316 mg", "setting": "[3]; Oryctolagus cuniculus, Table 6, dose 31.6 μg, read-out: Corrected mean % change in perfusion pressurre", "value": 5.5, "unit": "%"}, {"measurement": "inhibition at 0.1 mg", "setting": "[3]; Oryctolagus cuniculus, Table 6, dose 100 μg, read-out: Corrected mean % change in perfusion pressurre", "value": 11.5, "unit": "%"}, {"measurement": "inhibition at 0.316 mg", "setting": "[3]; Oryctolagus cuniculus, Table 6, dose 316 μg, read-out: Corrected mean % change in perfusion pressurre", "value": 20.5, "unit": "%"}, {"measurement": "inhibition at 1 mg", "setting": "[3]; Oryctolagus cuniculus, Table 6, dose 1000 μg, read-out: Corrected mean % change in perfusion pressurre", "value": 34.5, "unit": "%"}, {"measurement": "inhibition at 0.0316 mg", "setting": "[3]; Oryctolagus cuniculus, Table 7, dose 31.6 μg, read-out: Mean % change in perfusion pressure", "value": 9.4, "unit": "%"}, {"measurement": "inhibition at 0.1 mg", "setting": "[3]; Oryctolagus cuniculus, Table 7, dose 100 μg, read-out: Mean % change in perfusion pressure", "value": 17.3, "unit": "%"}, {"measurement": "inhibition at 0.316 mg", "setting": "[3]; Oryctolagus cuniculus, Table 7, dose 316 μg, read-out: Mean % change in perfusion pressure", "value": 24.7, "unit": "%"}, {"measurement": "inhibition at 1 mg", "setting": "[3]; Oryctolagus cuniculus, Table 7, dose 1000 μg, read-out: Mean % change in perfusion pressure", "value": 28.9, "unit": "%"}, {"measurement": "inhibition at 3.16 mg", "setting": "[3]; Oryctolagus cuniculus, Table 7, dose 3160 μg, read-out: Mean % change in perfusion pressure", "value": 27.6, "unit": "%"}, {"measurement": "Mean time taken to return to pre-dose volume", "setting": "[3]; Table 5, dose 31.6 µg", "value": 1.75, "unit": "min"}, {"measurement": "Mean time taken to return to pre-dose volume", "setting": "[3]; Table 5, dose 100 µg", "value": 4.25, "unit": "min"}, {"measurement": "Mean time taken to return to pre-dose volume", "setting": "[3]; Table 5, dose 316 µg", "value": 5.5, "unit": "min"}, {"measurement": "Mean time taken to return to pre-dose volume", "setting": "[3]; Table 5, dose 1000 µg", "value": 8.75, "unit": "min"}, {"measurement": "Mean time to return to predose value", "setting": "[3]; Table 6, dose 100 μg", "value": 4.25, "unit": "min"}, {"measurement": "Mean time to return to predose value", "setting": "[3]; Table 6, dose 316 μg", "value": 7.0, "unit": "min"}, {"measurement": "Mean time to return to predose value", "setting": "[3]; Table 6, dose 1000 μg", "value": 10.5, "unit": "min"}, {"measurement": "Mean time taken to return to predose volume", "setting": "[3]; Table 7, dose 31.6 μg", "value": 6.3, "unit": "min"}, {"measurement": "Mean time taken to return to predose volume", "setting": "[3]; Table 7, dose 100 μg", "value": 6.3, "unit": "min"}, {"measurement": "Mean time taken to return to predose volume", "setting": "[3]; Table 7, dose 316 μg", "value": 8.5, "unit": "min"}, {"measurement": "Mean time taken to return to predose volume", "setting": "[3]; Table 7, dose 1000 μg", "value": 19.3, "unit": "min"}, {"measurement": "Mean time taken to return to predose volume", "setting": "[3]; Table 7, dose 3160 μg", "value": 15.0, "unit": "min"}, {"measurement": "Antihypertensive activity", "setting": "[4]", "value": "Antihypertensive activity has also been obtained"}]}
